For 4 compounds, IC50 and secondary kinase targets results are on record in patent US20210121527A1, “METHODS OF TREATING MINIMAL RESIDUAL CANCER” (ICAHN SCHOOL OF MEDICINE AT MOUNT SINAI, priority 2018, published 2021).

pIC50: −log10 of the molar value.

The target in test [1] is T1, GCN2 catalytic domain (Homo sapiens, UniProt Q9P2K8).
T1 construct: HIS-SUMO-GCN2 catalytic domain (amino acids 584-1019); HIS (N); SUMO (N); made in house; host or cells: E. coli
T1 sequence (Q9P2K8 584-1019): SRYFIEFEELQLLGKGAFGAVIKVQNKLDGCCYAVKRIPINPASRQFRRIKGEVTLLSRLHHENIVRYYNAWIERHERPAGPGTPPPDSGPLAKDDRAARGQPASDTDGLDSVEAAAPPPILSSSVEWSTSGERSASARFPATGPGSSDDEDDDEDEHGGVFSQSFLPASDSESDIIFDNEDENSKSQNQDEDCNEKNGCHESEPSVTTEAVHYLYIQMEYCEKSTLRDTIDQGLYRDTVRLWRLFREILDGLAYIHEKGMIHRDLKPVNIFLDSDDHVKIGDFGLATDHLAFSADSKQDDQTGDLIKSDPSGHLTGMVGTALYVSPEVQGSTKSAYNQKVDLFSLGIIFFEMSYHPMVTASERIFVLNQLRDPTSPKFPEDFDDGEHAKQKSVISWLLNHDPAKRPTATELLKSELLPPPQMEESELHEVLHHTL
Kind of test: GCN2 biochemical TR-FRET kinase assay using purified eIF2a as substrate. The note with it: read-out: GCN2 Enzyme IC50. The method, then:
(§1) TR-FRET kinase assays were performed in the absence or presence of inhibitors in a reaction buffer consisting of 50 mM HEPES, pH 7.5, 10 mMMgCl2, 1.0 mM EGTA, and 0.01% Brij-35, and 100-200 nM GFP-eIF2a substrate. […] Following the addition of test compound, the reaction was initiated by addition of enzyme and incubated at room temperature for 45 minutes. The reaction was stopped by addition of EDTA to a final concentration of 10 mM and Terbium-labelled phospho-eIF2α antibody was added at a final concentration of 2 nM and incubated for 90 minutes. The resulting fluorescence was monitored in an EnVison® Multilabel reader (PerkinElmer, Waltham, Mass.). TR-FRET ratios and the resulting IC50 values were determined from the fitted inhibition curves. Biochemical specificity profiling was performed at Cerep (Redmond, Wash.) and DiscoverX (San Diego, Calif.).
A general note: In TR-FRET formats the signal depends on donor and acceptor labels being close together.

In test [2] the test system is ATF4-Luc activity. Kind of test: ATF4-luc assay, tunicamycin-induced, 293 cells. Particulars: Homo sapiens, HEK293; tunicamycin-induced ATF4-Luc activity in 293 cells; read-out: ATF4-luc Cell-based IC50. The procedure:
ATF4-luc assay: 293 cells were transduced with an ATF4-luc expressing lentivirus (SABiosciences, Frederick, Md.) and selected in growth medium containing 1 μg/ml puromycin. To determine the effect of compounds on ER stress-induced ATF4 activity, 293-ATF4-luc cells were seeded at 15,000 cells per well in poly-D-Lysine coated 96-well plates and allowed to attach overnight. The cells were then pre-treated with test compounds for 30 minutes. Tunicamycin (2 μM) was added to induce ER stress and the plates were incubated at 37° C. for 6 hours. The culture media was then aspirated and the cells were lysed in passive lysis buffer (Promega Cat # E194A) on a plate shaker for 5 minutes. Luciferase activity was monitored using Luciferase Assay Reagent (Promega Cat # E1501) in a Wallac 1420 Victor2™ Multilabel Counter (PerkinElmer, Waltham, Mass.) and IC50 values were determined from the resulting fitted inhibition curves using un-induced (100% inhibition) and induced (0% inhibition) wells as controls.

Test [3] concerns secondary kinase targets. Nature of the test: Kinase selectivity by enzymatic biochemical assay (FIG. 2E). Particulars: enzymatic assays. The procedure: as §1, with “Biochemical assays: Recombinant human EIF2AK3 (PERK) catalytic domain (amino acids 536-1116; Cat # PV5107), GFP-eIF2a (Cat # PV4809) substrate, and Terbium-labelled phospho-eIF2a antibody (Cat # PR8956B) were purchased from Invitrogen (Carlsbad, Calif.). HIS-SUMO-GCN2 catalytic domain (amino acids 584-1019) was expressed and purified from E. coli. TR-FRET kinase” for “TR-FRET kinase”

Take `CNC(=O)c1nc(-c2ccc(NC(=O)[C@H](O)c3cc(F)cc(F)c3)cc2C)cnc1N` [LY2, 3-amino-6-[4-[[(2R)-2-(3,5-difluorophenyl)-2-hydroxy-acetyl]amino]-2-methyl-phenyl]-N-methyl-pyrazine-2-carboxamide]: the negative logarithm of the IC50 (pIC50) – broadly, the negative decadic logarithm of the IC50, by convention in mol/L – in test [1] was 4.97; in test [2], 7.25. Also, the secondary kinase targets entry in test [3] is “several secondary targets below 5 μM”.

For `Cc1cccc(CC(=O)N2CCc3c2ccc(-c2cn(C)c4ncnc(N)c24)c3F)n1` [GSK2656157, reference compound], the pIC50 in test [1] is less than 3.70; in test [2], 7.68. For the same compound, in test [3], the secondary kinase targets entry is “several secondary targets below 5 μM”.

Take `Cc1cc(NC(=O)[C@H](O)c2cccc(F)c2)ccc1-c1cn(C)c2ncnc(N)c12` [LY3, (2R)-N-[4-(4-amino-7-methyl-pyrrolo[2,3-d]pyrimidin-5-yl)-3-methyl-phenyl]-2-(3-fluorophenyl)-2-hydroxy-acetamide]: the pIC50 in test [1] is 4.79; in test [2], 7.80. The secondary kinase targets entry in test [3] is recorded as “several secondary targets below 5 μM”.

`Cc1cc(NC(=O)[C@H](O)c2cc(F)cc(F)c2)ccc1-c1cnc(N)c(C(=O)NC(C)C)c1` [LY4, 2-amino-5-[4-[[(2R)-2-(3,5-difluorophenyl)-2-hydroxy-acetyl]amino]-2-methyl-phenyl]-N-isopropyl-pyridine-3-carboxamide]: the values for the pIC50 in test [1] and in test [2] were 4.74 and 7.32, respectively. Moreover, the secondary kinase targets entry in test [3] is reported as “no secondary kinase targets below 15 μM concentration”.
